Results on three molecules are retold here after patent US11712468B2, “CD70 combination therapy” (Argenx BV, priority 2018, dated 2023).

Data set [1] concerns NOMO-1 AML cells. Put plainly: AML cell killing with NK cells, Annexin V viable cell count at 72 h (IC50 and Chou-Talalay synergy). Format: cell-based. The conditions noted are these: Homo sapiens. Here is the method:
(§1) Initially, cells from each AML cell line were treated with decitabine, cusatuzumab or venetoclax alone to determine the IC50 for each treatment. 10^5 AML cells were treated with a concentration range of cusatuzumab (0.1, 1.0 and 10 μg/ml), venetoclax (0.5 and 200 nM), decitabine (0.01-1 μM) or vehicle in the presence of CFSE-labelled NK cells derived from healthy individuals (ratio 1:1). The assay was performed in triplicate.
(§2) To determine synergy, a constant combination ratio experiment was carried out at equipotency ratio (IC501/IC502, or IC501/IC502/IC503) so that each drug contributed equally to cell killing. Combination drug dose responses were assessed in two technical replicates for every dose/dose combination as previously described (Riether et al., Sci Transl Med (2015) 7(298); 298ra119.
(§3) NOMO-1, MOLM-13, NB-4 or MV4-11 AML cell lines were treated with vehicle, decitabine, cusatuzumab or venetoclax alone, a double combination of venetoclax and decitabine, decitabine and cusatuzumab, or venetoclax and cusatuzumab, or a triple combination of decitabine, cusatuzumab and venetoclax. All combinations were tested at three high and three low concentrations (above and below the identified IC50s) and in a constant ratio. Cells were cultured in the presence of CFSE-labeled NK cells (ratio 1:1). Viable AML cell numbers were assessed 72 hours later by Annexin V staining, and the effect of drug treatment was calculated as the ratio of surviving cells to vehicle-treated cells.
(§4) The Combination Index (CI) was calculated and plotted against Fraction affected (Fa) using CompuSyn software. The resultant plot of the combination index (CI) against fraction affected (Fa) for all combinations is shown in FIG. 1, with the individual combinations shown in FIGS. 2A-2D.
(§5) Fa values of 0, 0.5, and 1 correspond to 0, 50, and 100% killed cells. A CI of <1, 1, >1 represents synergism, additivity, and antagonism, respectively. IC50s indicates Fa values reached for the combination of respective IC50 concentrations. The principles and advantages of the Fa-CI plot method of assessing synergism are provided in, for example, Chou T C, Cancer Research (2010) 70(2); 440-6 and Zhao et al. Front Biosci (Elite Ed). (2010) 2; 241-249 (each of which is incorporated herein by reference in its entirety).

Data set [2] has as its system MV4-11 AML cells. The description is as above. Format: cell-based. Particulars: Homo sapiens. Here is the method: as §1, §2, §3, §4, §5
The test system of data set [3] is MOLM-13 AML cells. The data set is described as above. Format: cell-based. The conditions noted are these: Homo sapiens. Here is the method:
as §1, §2, §3, §4, §5

The test system of data set [4] is NB4 AML cells. The description is as above. It is filed as cell-based. Here is the method:
as §1, §2, §3, §4, §5

For data set [5] the following is noted: cited from earlier work.
Data set [6] concerns CD70 expression. Put plainly: CD70 mRNA and protein expression in AML cells. It is filed as cell-based. The conditions noted are these: AML cells (MOLM-13, NOMO-1) in the presence of venetoclax. Here is the method: FIG. 9: CD70 mRNA expression (as percentage of housekeeping gene) following treatment with vehicle (Veh) or venetoclax (Ven) for 24 or 48 hrs.
FIG. 10: CD70 protein and mRNA expression by MOLM-13 and NOMO-1 cells in the presence (gray bars) and absence (black bars) of venetoclax. Significance was determined using a Student's t-test. MFI=mean fluorescence intensity. *** P<0.001.
The effect of venetoclax on expression of CD70 at both the mRNA and protein level was assessed.

For data set [7], the system named is CD27 signalling. The conditions noted are these: cited from earlier work.
Data set [8] deals with T1, CD70 (Homo sapiens, UniProt P32970).
T1 sequence (P32970 1-193): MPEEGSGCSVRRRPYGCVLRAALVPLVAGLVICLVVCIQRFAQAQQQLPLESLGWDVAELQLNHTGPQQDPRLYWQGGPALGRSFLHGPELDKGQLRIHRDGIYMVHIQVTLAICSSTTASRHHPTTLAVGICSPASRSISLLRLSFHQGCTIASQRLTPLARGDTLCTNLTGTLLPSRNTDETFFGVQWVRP
The conditions noted are these: Silence et al. (2014); cited from earlier work.

The subject of data set [9] is CD70-expressing tumour cells. Particulars: Silence et al. (2014); cited from earlier work.

Like-named read-outs stand apart in the source and are kept apart here.

As for `Nc1ncn([C@H]2C[C@H](O)[C@@H](CO)O2)c(=O)n1` [decitabine], the half-inhibitory concentration (IC50) in data set [1] (NOMO-1) is 0.001 nM; in [2] (MV4-11), 2.36 nM; in [3] (MOLM-13), 0.01 nM; in data set [4], 4.8 nM.
Consider `CC1(C)CCC(CN2CCN(c3ccc(C(=O)NS(=O)(=O)c4ccc(NCC5CCOCC5)c([N+](=O)[O-])c4)c(Oc4cnc5[nH]ccc5c4)c3)CC2)=C(c2ccc(Cl)cc2)C1` [venetoclax, 4-(4-{[2-(4-chlorophenyl)-4,4dimethylcyclohex-1-en-1-yl]methyl}piperazin-1-yl)-N-({3-nitro-4-[(tetrahydro-2H-pyran-4ylmethyl)amino]phenyl}sulfonyl)-2-(1H-pyrrolo[2,3-b]pyridin-5-yloxy)benzamide], for which the IC50 in data set [1] (NOMO-1, monotherapy, NK cells ratio 1:1, read-out: IC50) stood at 3.4 nM; in data set [2] (MV4-11, monotherapy, NK cells ratio 1:1, read-out: IC50), 5 nM; in data set [3] (MOLM-13, monotherapy, NK cells ratio 1:1, read-out: IC50) it was 0.42 nM; in data set [4] (NB4, monotherapy, NK cells ratio 1:1, read-out: IC50), 17.3 nM. The Aqueous solubility result in [5] is “very low aqueous solubility”. For the same molecule, the “CD70 expression (mRNA and protein)” value in data set [6] is reported as “up-regulated”.

B1: cusatuzumab: IgG1 anti-CD70 antibody, ADCC-enhanced humanized monoclonal; VH SEQ ID NO: 4, VL SEQ ID NO: 8 (antibody, V domains shown)
VH: EVQLVESGGGLVQPGGSLRLSCAASGFTFSVYYMNWVRQAPGKGLEWVSDINNEGGTTYYADSVKGRFTISRDNSKNSLYLQMNSLRAEDTAVYYCARDAGYSNHVPIFDSWGQGTLVTVSS
VL: QAVVTQEPSLTVSPGGTVTLTCGLKSGSVTSDNFPTWYQQTPGQAPRLLIYNTNTRHSGVPDRFSGSILGNKAALTITGAQADDEAEYFCALFISNPSVEFGGGTQLTVLG
On to B1, for which the “CD70-induced CD27 signalling” value in data set [7] is on record as “inhibit CD70-induced CD27 signalling”. Besides, the “Interaction of CD70 with CD27” value in [8] was “inhibit the interaction of CD70 with its receptor CD27”. For the same molecule, the “Lysis of CD70-expressing tumour cells via ADCC and CDC” value in [9] is recorded as “lyse CD70-expressing tumour cells”.

For orientation: IC50 means the concentration that inhibits the measured activity by half.
